# In PubChem BioAssay AID1963839 (Molecular Pharmacology Branch, DTP, NCI, 2024):
# “And” between values parts separate entries of the source, which are not always exact repeats. Identical values can stand only once.
# System: 817829-284-R-J1-PDC complex spheroid viability
# Experiment: Anticancer human tumor 817829-284-R-J1-PDC patient-derived colon adenocarcinoma cell line growth inhibition [POLQ]
# Details: for viability, T/C: stronger effect = lower value
# Method: Multicellular complex tumor spheroid response to Polymerase (POL) inhibitors (novobiocin, ART-558, RP6685) in combination with a variety of drugs and investigational agents in selected tumor cell lines
# The POL inhibitors (novobiocin, ART-558, and RP6685) were evaluated both individually and in combination with standard of care and investigational anticancer small molecules within a complex spheroid model of solid tumors. . Complex spheroids include a stromal component modeled by human endothelial cells (HUVEC) and fibroblasts modeled by human mesenchymal stem cells (MSCs). The concentration ranges selected for each drug and investigational agent were based upon clinically achievable concentrations if the clinical Cmax of the agent was known.
# Compounds. The drugs and investigational agents: novobiocin (NSC847541), ART-558 (NSC835418), RP-6685 (NSC848927), peposertib (NSC802822), ceralasertib (NSC780249), elimusertib (NSC800525), camonsertib (NSC841442), AZD-1390 (NSC803789), olaparib (NSC753686), talazoparib (NSC767125), rucaparib (NSC756644), sotorasib (NSC818433), MRTX-1133 (NSC836407), SN-38 (NSC673596), topotecan (NSC609699), epotoside (NSC141540), doxorubicin (NSC123127), gemcitabine (NSC613327), 5-fluorouracil (NSC19893), paclitaxel (NSC125973), vemurafenib (NSC761431), MSA-2 (NSC828583), SN-011 (NSC837082), adavosertib (NSC754352), prexasertib (NSC758257), carboplatin (NSC241240) and oxaliplatin (NSC266046), were obtained from the National Cancer Institute (NCI) Developmental Therapeutics Program Chemical Repository (21). The FDA-approved anticancer drug set is available from the Developmental Therapeutics Program at https://dtp.cancer.gov/organization/dscb/obtaining/. […] The stock solutions were prepared in dimethyl sulfoxide (DMSO, Sigma-Aldrich, St. Louis, MO, cat. D2650), except for the platinum compounds which were prepared in saline (Quality Biological, Gaithersburg, MD, cat. 114-055-101), at 800-fold the tested concentration and stored at -70 degrees C prior to their use. All drugs and investigational agents were tested over a range starting from a high concentration at or near the clinical Cmax and decreasing in half-log increments. If the clinical Cmax for an agent had not been determined, the highest concentration tested was 10 microM, except for SN-38, which was tested at a high concentration of 1 microM.
# Cell Culture. All cells were maintained in an incubator at 37 degrees C and 5% CO2 with 95% humidity. The PDC lines were cultured according to standard operating procedures established by the NCI PDMR (https://pdmr.cancer.gov). Table 3 of the manuscript, lists the cell lines along with the number of the three cell types plated to form the mct-spheroids and media for tumor cell growth. After thawing, all PDC lines, except 997537-175-T-J1-PDC and 415267-285-R-J2-PDC, were cultured in Matrigel-coated flasks prepared with a working solution of 1X Ham's F-12 nutrient mix, without supplementation (Thermo Fisher Scientific, cat. 11765054), 100 U/mL penicillin-streptomycin (Thermo Fisher Scientific, cat. 15140122), and 2.5% Matrigel (Corning Inc., Corning, NY, cat. 354248) for the first three passages. The two PDC lines 997537-175-T-J1-PDC and 415267-285-R-J2-PDC were cultured on uncoated flasks. The 857933-349-R-J2-PDC line was cultured in 6C/Colon 1B media containing advanced DMEM/F-12 (Thermo Fisher Scientific, cat. 12634028), 10 mM HEPES (Thermo Fisher Scientific, cat. 15630080), 1X GlutaMAX supplement (Thermo Fisher Scientific, cat. 35050061), 0.1 mg/mL primocin (InvivoGen, San Diego, CA, cat. ant-pm-2), 10% defined fetal bovine serum, heat inactivated (HyClone Laboratories Inc., Logan, UT, cat. SH30070.03HI), 50% L-WRN conditioned media (ATCC, cat. CRL-3276), 1.25 mM N-Acetyl-L-cysteine (Sigma-Aldrich, cat. A9165), 10 mM nicotinamide (Sigma-Aldrich, cat. N0636), 1X B-27 supplement (Thermo Fisher Scientific, cat. 17504044), 1X N-2 supplement (Thermo Fisher Scientific, cat. […]
# 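Note: spheroids exposed to compounds for 7 days.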
# 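Throughout, for viability, T/C: 100% = DMSO vehicle-treated spheroids.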
Structure (SMILES),"viability, T/C (compound 0.0316 µM)","viability, T/C (compound 0.1 µM)","viability, T/C (compound 0.316 µM)","viability, T/C (compound 1 µM)","viability, T/C (compound 3.16 µM)","viability, T/C (compound 10 µM)",IC50 (curve of compound),"IC50 (compound alone, run of 11/27/2023)"
CC1COCCN1c1cc(C2(S(C)(=N)=O)CC2)nc(-c2ccnc3[nH]ccc23)n1 (centres undefined),110% and 98% and 105%,96.4% and 67.8% and 94.3%,65% and 52.9% and 63.1%,33.9% and 23.4% and 25.4%,8.76% and 7.96% and 7.97%,4.29% and 4.9% and 3.97%,545 nM and 274 nM and 472 nM,
C#Cc1c(F)ccc2cc(O)cc(-c3ncc4c(N5CC6CCC(C5)N6)nc(OCC56CCCN5CC(F)C6)nc4c3F)c12 (centres undefined),95.2% and 94.8% and 96%,84.6% and 98.2% and 122%,72% and 98.1% and 118%,88.4% and 89% and 92.8%,90.2% and 111% and 115%,53.8% and 102% and 54.2%,> 10000 nM,
COC1C(OC(N)=O)C(O)C(Oc2ccc3c(O)c(NC(=O)c4ccc(O)c(CC=C(C)C)c4)c(=O)oc3c2C)OC1(C)C (centres undefined),,,,,,,,> 10000 nM
C=CC(=O)N1CCN(c2nc(=O)n(-c3c(C)ccnc3C(C)C)c3nc(-c4c(O)cccc4F)c(F)cc23)C(C)C1 (centres undefined),70% and 89.9% and 113%,93.6% and 105% and 95.7%,103% and 97.2% and 99.5%,86.7% and 94.7% and 101%,88.8% and 90.2% and 102%,53% and 58.3% and 44.1%,> 10000 nM and 8900 nM,
COc1ccc([C@@H](O)c2cc(-c3ncnc4cc(N5CCOCC5)ccc34)c(F)cc2Cl)nn1,79.4% and 93.7% and 78.8%,94.5% and 91% and 91.4%,65.4% and 72.2% and 74.5%,41% and 43.4% and 43.2%,30.4% and 40.3% and 25.8%,19.4% and 22.7% and 12.3%,684 nM and 894 nM and 830 nM,
